Assays:
BV-2 [1] = assay: Antineuroinflammatory activity in LPS-induced mouse BV-2 cells assessed as inhibition of NO production by griess assay; assay type: functional, cell-based
BV-2 [2] = assay: Cytotoxicity against mouse BV-2 cells at 20 uM by MTT assay; assay type: toxicity, cell-based; conditions: bv-2, 20 µM
BV-2 [3] = assay: Antineuroinflammatory activity in LPS-induced mouse BV-2 cells assessed as downregulation of COX-2 protein expression by Western blot analysis; assay type: functional, cell-based; conditions: dose 2.5-10 µM
BV-2 [4] = assay: Antineuroinflammatory activity in LPS-induced mouse BV-2 cells assessed as reduction in cytoplasmic NF-kappaB protein expression by Western blot analysis; assay type: functional, cell-based; conditions: dose 2.5-10 µM
BV-2 [5] = assay: Antineuroinflammatory activity in LPS-induced mouse BV-2 cells assessed as reduction in nuclear NF-kappaB protein expression by Western blot analysis; assay type: functional, cell-based; conditions: dose 2.5-10 µM
BV-2 [6] = assay: Antineuroinflammatory activity in LPS-induced mouse BV-2 cells assessed as downregulation of iNOS protein expression by Western blot analysis; assay type: functional, cell-based; conditions: dose 2.5-10 µM

## COc1ccc2c(c1)c(CC(=O)O)c(C)n2C(=O)c1ccc(Cl)cc1 [INDOMETHACIN]
BV-2 [1]
  IC50: 19.5 µM

## C[C@@H]1C[C@H]2[C@@H]3CCC4=CC(=O)C=C[C@]4(C)[C@@]3(F)[C@@H](O)C[C@]2(C)[C@@]1(O)C(=O)CO [DEXAMETHASONE]
BV-2 [1]
  IC50: 2.83 µM

## CC(=O)C[C@@H]1CCC(C)(C)C/C1=C/[C@H]1CC(=O)O[C@H]1C(C)(C)OC(=O)c1ccccc1
BV-2 [1]
  IC50: 14.9 µM
BV-2 [2]
  Activity: Non-Toxic

## O=c1c(O)c(-c2ccc(O)c(O)c2)oc2cc(O)cc(O)c12 [QUERCETIN]
BV-2 [1]
  IC50: 7.41 µM

## CC(=O)C[C@@H]1CCC(C)(C)C/C1=C/[C@H]1CC(=O)OC(C)(C)[C@@H]1OC(=O)c1ccccc1
BV-2 [1]
  IC50: 7.35 µM
BV-2 [2]
  Activity: Non-Toxic

## CC(=O)C[C@@H]1CCC(C)(C)C/C1=C/[C@H]1CC(=O)OC(C)(C)[C@H]1OC(=O)c1ccccc1
BV-2 [3]
  Activity: Dose-Dependent Effect
BV-2 [4]
  Activity: Dose-Dependent Effect
BV-2 [5]
  Activity: Dose-Dependent Effect
BV-2 [6]
  Activity: Dose-Dependent Effect
BV-2 [1]
  IC50: 5.74 µM
BV-2 [2]
  Activity: Non-Toxic

## CC(=O)C[C@@H]1CCC(C)(C)C/C1=C/C1=CC(C)(C)OC1=O
BV-2 [1]
  IC50: > 20 µM
BV-2 [2]
  Activity: Non-Toxic

From ChEMBL document CHEMBL5360636, “Hyperelatolides A-D, Antineuroinflammatory Constituents with Unusual Carbon Skeletons from Hypericum elatoides” (J Nat Prod, 2023)
